Test results: a compilation of properties of binary mixtures (doi:10.1016/j.molliq.2022.119209)

Assay: xn = mol fraction of the nth substance listed
Conditions: 100 kPa

O + CC(N)C(=O)[O-].CCCC[n+]1ccn(C)c1C
x2 = 0
Conditions	viscosity [mPa·s]
288.15 K	1.17
293.15 K	1.03
303.15 K	0.82
308.15 K	0.74

O + CCCC[n+]1ccn(C)c1C.NCC(=O)[O-]
x2 = 0
Conditions	viscosity [mPa·s]
288.15 K	1.17
293.15 K	1.03
298.15 K	0.91
303.15 K	0.82
318.15 K	0.61

O + N[C@@H]([C@H](O)C)C(=O)[O-].C(CCC)N1C(=[N+](C=C1)C)C
x2 = 0
Conditions	viscosity [mPa·s]
288.15 K	1.17
298.15 K	0.91
303.15 K	0.82
308.15 K	0.74
318.15 K	0.61

CC(N)C(=O)[O-].CCCC[n+]1ccn(C)c1C + O
viscosity [mPa·s]
Conditions	x1 = 0.1003	x1 = 0.2012	x1 = 0.3009	x1 = 0.4014	x1 = 0.4938	x1 = 0.5975	x1 = 0.6987	x1 = 0.7945	x1 = 0.8965	x1 = 1
288.15 K	28.4	52	86	127	168	215	270	336	429	520
293.15 K	–	40	64	95	126	161	–	244	307	–
298.15 K	17.1	30.5	48.9	72	96	123	151	183	226	268
303.15 K	12.8	23.3	36.8	54	72	92	113	136	165	192
308.15 K	10.6	19	30	44	58	75	92	110	131	150
313.15 K	8.1	14.7	23	33.5	44.2	57	–	82	97	110
318.15 K	6.7	12.1	–	27.5	36.3	46.7	57	67	77	–

CCCC[n+]1ccn(C)c1C.NCC(=O)[O-] + O
viscosity [mPa·s]
Conditions	x1 = 0.0999	x1 = 0.1982	x1 = 0.3003	x1 = 0.3904	x1 = 0.4786	x1 = 0.6	x1 = 0.6999	x1 = 0.798	x1 = 0.9001	x1 = 1
288.15 K	25.2	40.3	63	92	125	180	232	298	390	480
293.15 K	18.2	29.1	45.4	–	90	129	163	205	257	318
298.15 K	–	–	–	49.1	67	–	–	–	178	218
303.15 K	10.4	17.3	26.7	37.7	51	71	88	105	–	152
308.15 K	–	13.1	–	–	38.3	53	–	77	90	109
313.15 K	6.3	10.8	16.6	–	31.2	43.1	53	62	–	84
318.15 K	5.7	9.6	14.7	20.5	27.5	38.1	–	–	61	72

CCCCn1cc[n+](C)c1C.C[C@@H](O)[C@H](N)C(=O)[O-] + O
viscosity [mPa·s]
Conditions	x1 = 0.0998	x1 = 0.1919	x1 = 0.2985	x1 = 0.4004	x1 = 0.4927	x1 = 0.599	x1 = 0.7003	x1 = 0.8001	x1 = 0.9012	x1 = 1
288.15 K	57	84	141	228	–	470	650	880	1181	1472
293.15 K	40.4	61	–	164	236	331	–	600	780	960
298.15 K	28.7	44	73	115	164	231	–	–	510	610
303.15 K	18.1	28.7	47.4	74	105	145	191	245	310	363
308.15 K	15.6	–	40.6	–	89	–	159	–	245	285
313.15 K	9.8	15.8	–	40.6	57	–	100	122	145	167
318.15 K	8	13.1	–	–	–	62	–	–	107	125
